Data taken from patent publication US20240368203A1, “DEGRADATION OF (EGFR) BY CONJUGATION OF EGFR INHIBITORS WITH E3 LIGASE LIGAND AND METHODS OF USE” (BeiGene, Ltd., priority 2022, published 2024).

Legend:
EGFR-Del19/T790M/C797S = test: EGFR degradation HTRF assay in H1975-clone #28 cells; assay type: cell-based; details: H1975-clone #28 (Del19/T790M/C797S) cells, 16 h treatment; for DC50: IC50 (DC50), read-out: DC50(nM) H1975 # 28 DTC; for Dmax (%) H1975 # 28 DTC: maximum percentage of inhibition (degradation)
How it was run: (§1)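 H1975 clones with endogenous EGFR knocked out, homozygously expressing lentiviral L858R/T790M/C797S (#25) or Del19/T790M/C797S (#28), treated 16 h at 37° C with 8 doses from 10 uM, 5-fold, in 0.2% DMSO. EGFR in lysates measured by HTRF overnight; DC50 from four-parameter fit of % degradation.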

EGFR-L858R/T790M/C797S = biological target: T1, EGFR-L858R/T790M/C797S (Homo sapiens, UniProt P00533, C797S/L858R/T790M); test: EGFR degradation HTRF assay in H1975-clone #25 cells; assay type: cell-based; details: 16 h treatment; for DC50: H1975-clone #25 (L858R/T790M/C797S) cells, IC50 (DC50), read-out: DC50(nM) H1975 # 25-LTC; for Dmax: NCI-H1975, H1975-clone #25 (L858R/T790M/C797S) cells, maximum percentage of inhibition (degradation), read-out: Dmax (%) H1975 # 25-LTC
T1 construct: expressed in transfected cells; host or cells: H1975-clone #25 (lentiviral over-expression, endogenous EGFR knocked out)
How it was run: as §1

T1 sequence (P00533 25-1210 T790M/C797S/L858R): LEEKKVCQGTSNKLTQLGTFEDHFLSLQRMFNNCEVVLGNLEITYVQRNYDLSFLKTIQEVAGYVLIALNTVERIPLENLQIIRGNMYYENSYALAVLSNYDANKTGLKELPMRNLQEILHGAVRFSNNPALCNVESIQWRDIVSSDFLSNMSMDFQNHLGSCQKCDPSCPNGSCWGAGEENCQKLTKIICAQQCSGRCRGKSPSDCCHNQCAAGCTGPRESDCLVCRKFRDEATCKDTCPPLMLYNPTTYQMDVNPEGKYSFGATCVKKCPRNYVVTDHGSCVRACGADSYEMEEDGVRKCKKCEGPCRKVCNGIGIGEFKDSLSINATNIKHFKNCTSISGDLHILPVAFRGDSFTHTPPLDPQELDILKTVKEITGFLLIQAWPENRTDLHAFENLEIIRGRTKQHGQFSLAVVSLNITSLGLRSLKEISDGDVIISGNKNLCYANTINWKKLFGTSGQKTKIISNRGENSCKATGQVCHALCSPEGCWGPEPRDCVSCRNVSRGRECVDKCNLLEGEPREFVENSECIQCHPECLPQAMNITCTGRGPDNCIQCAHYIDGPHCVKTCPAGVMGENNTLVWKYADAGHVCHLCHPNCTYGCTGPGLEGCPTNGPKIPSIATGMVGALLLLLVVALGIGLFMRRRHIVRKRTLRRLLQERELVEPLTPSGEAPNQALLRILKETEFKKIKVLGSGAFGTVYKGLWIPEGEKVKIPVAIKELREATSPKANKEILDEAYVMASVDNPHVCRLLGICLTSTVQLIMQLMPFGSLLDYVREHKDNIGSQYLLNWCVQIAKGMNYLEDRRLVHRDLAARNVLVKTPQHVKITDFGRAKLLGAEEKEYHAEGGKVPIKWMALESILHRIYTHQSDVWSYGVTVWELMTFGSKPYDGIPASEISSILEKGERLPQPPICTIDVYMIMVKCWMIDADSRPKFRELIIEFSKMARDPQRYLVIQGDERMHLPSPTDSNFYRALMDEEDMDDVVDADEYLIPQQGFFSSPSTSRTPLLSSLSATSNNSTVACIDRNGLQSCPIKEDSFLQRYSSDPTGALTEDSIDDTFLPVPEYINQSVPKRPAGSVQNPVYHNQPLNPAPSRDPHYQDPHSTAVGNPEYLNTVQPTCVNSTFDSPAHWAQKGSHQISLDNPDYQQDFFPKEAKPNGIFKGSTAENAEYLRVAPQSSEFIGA

For `CCc1ncc2c(P(C)(C)=O)c(Nc3nc(Nc4cc(CC)c(N5CCC6(CC5)CCN(C5CCN(c7cc(F)c([C@H]8CCC(=O)NC8=O)c(F)c7)CC5)CC6)cc4OC)ncc3Br)ccc2n1` [Example 3, (R)-3-(4-(4-(9-(4-((5-bromo-4-((5-(dimethylphosphoryl)-2-ethylquinazolin-6-yl)amino)pyrimidin-2-yl)amino)-2-ethyl-5-methoxyphenyl)-3,9-diazaspiro[5.5]undecan-3-yl)piperidin-1-yl)-2,6-difluorophenyl)piperidine-2,6-dione], the DC50 (EGFR-Del19/T790M/C797S) was 1.9 nM, the “Dmax (%) H1975 # 28 DTC” value (EGFR-Del19/T790M/C797S) was 91% and the DC50 (EGFR-L858R/T790M/C797S) was 2.8 nM. For the same molecule, the Dmax (EGFR-L858R/T790M/C797S) was 95%.

With `CCc1ncc2c(P(C)(C)=O)c(Nc3nc(Nc4cc(CC)c(N5CCC(N6CCN(C7CN(c8cccc9c8n(C)c(=O)n9C8CCC(=O)NC8=O)C7)CC6)CC5)cc4OC)ncc3Br)ccc2n1` (stereo not shown) [Example 23, 3-(4-(3-(4-(1-(4-((5-bromo-4-((5-(dimethylphosphoryl)-2-ethylquinazolin-6-yl)amino)pyrimidin-2-yl)amino)-2-ethyl-5-methoxyphenyl)piperidin-4-yl)piperazin-1-yl)azetidin-1-yl)-3-methyl-2-oxo-2,3-dihydro-1H-benzo[d]imidazol-1-yl)piperidine-2,6-dione] the DC50 (EGFR-Del19/T790M/C797S) was 0.6 nM, the “Dmax (%) H1975 # 28 DTC” value (EGFR-Del19/T790M/C797S) was 74% and the DC50 (EGFR-L858R/T790M/C797S) was 0.9 nM. It also gave a Dmax (EGFR-L858R/T790M/C797S) of 80%.

With `CCc1cc(Nc2ncc(Br)c(Nc3ccc4nc(C)c(F)cc4c3P(C)(C)=O)n2)c(OC)cc1N1CCC(N2CC3(CN(c4cccc5c4n(C)c(=O)n5C4CCC(=O)NC4=O)C3)C2)CC1` (stereo not shown) [Example 26, 3-(4-(6-(1-(4-((5-bromo-4-((5-(dimethylphosphoryl)-3-fluoro-2-methylquinolin-6-yl)amino)pyrimidin-2-yl)amino)-2-ethyl-5-methoxyphenyl)piperidin-4-yl)-2,6-diazaspiro[3.3]heptan-2-yl)-3-methyl-2-oxo-2,3-dihydro-1H-benzo[d]imidazol-1-yl)piperidine-2,6-dione] the DC50 (EGFR-Del19/T790M/C797S) was 1.4 nM, the “Dmax (%) H1975 # 28 DTC” value (EGFR-Del19/T790M/C797S) was 75% and the DC50 (EGFR-L858R/T790M/C797S) was 0.7 nM. It also gave a Dmax (EGFR-L858R/T790M/C797S) of 80%.

For `COc1cc(N2CCC3(CC2)CCN(C2CCN(c4cc(F)c([C@H]5CCC(=O)NC5=O)c(F)c4)CC2)CC3)c(C)cc1Nc1ncc(Br)c(Nc2ccc3nc(C)ncc3c2P(C)(C)=O)n1` [Example 66, (R)-3-(4-(4-(9-(4-((5-bromo-4-((5-(dimethylphosphoryl)-2-methylquinazolin-6-yl)amino)pyrimidin-2-yl)amino)-5-methoxy-2-methylphenyl)-3,9-diazaspiro[5.5]undecan-3-yl)piperidin-1-yl)-2,6-difluorophenyl)piperidine-2,6-dione], the DC50 (EGFR-Del19/T790M/C797S) was 3.5 nM, the “Dmax (%) H1975 # 28 DTC” value (EGFR-Del19/T790M/C797S) was 91% and the DC50 (EGFR-L858R/T790M/C797S) was 6.9 nM. It also gave a Dmax (EGFR-L858R/T790M/C797S) of 93%.

`CCc1cc(Nc2ncc(Cl)c(Nc3ccc4nc(C)c(F)cc4c3P(C)(C)=O)n2)c(OC)cc1N1CC2(CN(CC3CN(c4cc(F)c([C@H]5CCC(=O)NC5=O)c(F)c4)C3)C2)C1` [Example 78] was tested, and the DC50 (EGFR-Del19/T790M/C797S) was 1.9 nM, the “Dmax (%) H1975 # 28 DTC” value (EGFR-Del19/T790M/C797S) was 90% and the DC50 (EGFR-L858R/T790M/C797S) was 5.4 nM. The Dmax (EGFR-L858R/T790M/C797S) was 74%.

`COc1cc(N2CCC3(CC2)CCN(C2CCN(c4cc(F)c([C@H]5CCC(=O)NC5=O)c(F)c4)CC2)CC3)c(C)cc1Nc1ncc(Br)c(Nc2ccc3nc(C)c(F)cc3c2P(C)(C)=O)n1` [Example 37, (R)-3-(4-(4-(9-(4-((5-bromo-4-((5-(dimethylphosphoryl)-3-fluoro-2-methylquinolin-6-yl)amino)pyrimidin-2-yl)amino)-5-methoxy-2-methylphenyl)-3,9-diazaspiro[5.5]undecan-3-yl)piperidin-1-yl)-2,6-difluorophenyl)piperidine-2,6-dione] was tested, and the DC50 (EGFR-Del19/T790M/C797S) was 3.3 nM, the “Dmax (%) H1975 # 28 DTC” value (EGFR-Del19/T790M/C797S) was 90% and the DC50 (EGFR-L858R/T790M/C797S) was 1.4 nM. It also gave a Dmax (EGFR-L858R/T790M/C797S) of 95%.

With `CCc1ncc2c(P(C)(C)=O)c(Nc3nc(Nc4cc(CC)c(N5CCC(N6CCN(C7CN(c8cc(F)c([C@H]9CCC(=O)NC9=O)c(F)c8)C7)CC6)CC5)cc4OC)ncc3Br)ccc2n1` (single isomer, unassigned) [Example 7] the DC50 (EGFR-Del19/T790M/C797S) was 2.7 nM, the “Dmax (%) H1975 # 28 DTC” value (EGFR-Del19/T790M/C797S) was 86% and the DC50 (EGFR-L858R/T790M/C797S) was 2.9 nM. For the same molecule, the Dmax (EGFR-L858R/T790M/C797S) was 76%.

For `CCc1cc(Nc2ncc(Br)c(Nc3ccc4nc(C)c(F)cc4c3P(C)(C)=O)n2)c(OC)cc1N1CCC2(CC1)CCN(C1CCN(c3cc(F)c([C@H]4CCC(=O)NC4=O)c(F)c3)CC1)CC2` [Example 1, (R)-3-(4-(4-(9-(4-((5-bromo-4-((5-(dimethylphosphoryl)-3-fluoro-2-methylquinolin-6-yl)amino)pyrimidin-2-yl)amino)-2-ethyl-5-methoxyphenyl)-3,9-diazaspiro[5.5]undecan-3-yl)piperidin-1-yl)-2,6-difluorophenyl)piperidine-2,6-dione], the DC50 (EGFR-Del19/T790M/C797S) was 2.2 nM, the “Dmax (%) H1975 # 28 DTC” value (EGFR-Del19/T790M/C797S) was 89% and the DC50 (EGFR-L858R/T790M/C797S) was 3.4 nM. It also gave a Dmax (EGFR-L858R/T790M/C797S) of 92%.

In the case of `CCc1ncc2c(P(C)(C)=O)c(Nc3nc(Nc4cc(CC)c(N5CCC(N6CC7(CN(c8cccc9c8n(C)c(=O)n9C8CCC(=O)NC8=O)C7)C6)CC5)cc4OC)ncc3Br)ccc2n1` (stereo not shown) [Example 25, 3-(4-(6-(1-(4-((5-bromo-4-((5-(dimethylphosphoryl)-2-ethylquinazolin-6-yl)amino)pyrimidin-2-yl)amino)-2-ethyl-5-methoxyphenyl)piperidin-4-yl)-2,6-diazaspiro[3.3]heptan-2-yl)-3-methyl-2-oxo-2,3-dihydro-1H-benzo[d]imidazol-1-yl)piperidine-2,6-dione], the DC50 (EGFR-Del19/T790M/C797S) was 0.8 nM, the “Dmax (%) H1975 # 28 DTC” value (EGFR-Del19/T790M/C797S) was 74% and the DC50 (EGFR-L858R/T790M/C797S) was 0.5 nM. It also gave a Dmax (EGFR-L858R/T790M/C797S) of 82%.

`CCc1ccc2c(P(C)(C)=O)c(Nc3nc(Nc4cc(CC)c(N5CCC(N6CC7(CN(c8cc(F)c([C@H]9CCC(=O)NC9=O)c(F)c8)C7)C6)CC5)cc4OC)ncc3Br)ccc2n1` (single isomer, unassigned) [Example 27] was tested, and the DC50 (EGFR-Del19/T790M/C797S) was 1.3 nM, the “Dmax (%) H1975 # 28 DTC” value (EGFR-Del19/T790M/C797S) was 91% and the DC50 (EGFR-L858R/T790M/C797S) was 2.4 nM. For the same molecule, the Dmax (EGFR-L858R/T790M/C797S) was 92%.

`CCc1ccc2c(P(C)(C)=O)c(Nc3nc(Nc4cc(CC)c(N5CCC(N6CC7(CCN(c8cc(F)c([C@H]9CCC(=O)NC9=O)c(F)c8)CC7)C6)CC5)cc4OC)ncc3Br)ccc2n1` [Example 58, (R)-3-(4-(2-(1-(4-((5-bromo-4-((5-(dimethylphosphoryl)-2-ethylquinolin-6-yl)amino)pyrimidin-2-yl)amino)-2-ethyl-5-methoxyphenyl)piperidin-4-yl)-2,7-diazaspiro[3.5]nonan-7-yl)-2,6-difluorophenyl)piperidine-2,6-dione] was tested, and the DC50 (EGFR-Del19/T790M/C797S) was 1.6 nM, the “Dmax (%) H1975 # 28 DTC” value (EGFR-Del19/T790M/C797S) was 91% and the DC50 (EGFR-L858R/T790M/C797S) was 3.1 nM. It also gave a Dmax (EGFR-L858R/T790M/C797S) of 91%.

With `CCc1cc(Nc2ncc(Br)c(Nc3ccc4nc(C)c(F)cc4c3P(C)(C)=O)n2)c(OC)cc1N1CCC(N2CC3(CCN(c4cc(F)c([C@H]5CCC(=O)NC5=O)c(F)c4)CC3)C2)CC1` (single isomer, unassigned) [Example 18] the DC50 (EGFR-Del19/T790M/C797S) was 1.7 nM, the “Dmax (%) H1975 # 28 DTC” value (EGFR-Del19/T790M/C797S) was 91% and the DC50 (EGFR-L858R/T790M/C797S) was 1.7 nM. For the same molecule, the Dmax (EGFR-L858R/T790M/C797S) was 92%.

For `CCc1cc(Nc2ncc(Br)c(Nc3ccc4nc(C)c(F)cc4c3P(C)(C)=O)n2)c(OC)cc1N1CCC(N2CCN(C3CN(c4cccc5c4n(C)c(=O)n5C4CCC(=O)NC4=O)C3)CC2)CC1` (stereo not shown) [Example 22, 3-(4-(3-(4-(1-(4-((5-bromo-4-((5-(dimethylphosphoryl)-3-fluoro-2-methylquinolin-6-yl)amino)pyrimidin-2-yl)amino)-2-ethyl-5-methoxyphenyl)piperidin-4-yl)piperazin-1-yl)azetidin-1-yl)-3-methyl-2-oxo-2,3-dihydro-1H-benzo[d]imidazol-1-yl)piperidine-2,6-dione], the DC50 (EGFR-Del19/T790M/C797S) was 0.6 nM, the “Dmax (%) H1975 # 28 DTC” value (EGFR-Del19/T790M/C797S) was 74% and the DC50 (EGFR-L858R/T790M/C797S) was 0.9 nM. The Dmax (EGFR-L858R/T790M/C797S) was 83%.

In the case of `CCc1cc(Nc2ncc(Br)c(Nc3ccc4nc(C)c(F)cc4c3P(C)(C)=O)n2)c(OC)cc1N1CC2(C1)CN(C1CCN(c3cc(F)c([C@H]4CCC(=O)NC4=O)c(F)c3)CC1)C2` [Example 64, (R)-3-(4-(4-(6-(4-((5-bromo-4-((5-(dimethylphosphoryl)-3-fluoro-2-methylquinolin-6-yl)amino)pyrimidin-2-yl)amino)-2-ethyl-5-methoxyphenyl)-2,6-diazaspiro[3.3]heptan-2-yl)piperidin-1-yl)-2,6-difluorophenyl)piperidine-2,6-dione], the DC50 (EGFR-Del19/T790M/C797S) was 1.1 nM, the “Dmax (%) H1975 # 28 DTC” value (EGFR-Del19/T790M/C797S) was 94% and the DC50 (EGFR-L858R/T790M/C797S) was 1.5 nM. For the same molecule, the Dmax (EGFR-L858R/T790M/C797S) was 95%.

With `CCc1ncc2c(P(C)(C)=O)c(Nc3nc(Nc4cc(CC)c(N5CCC(N6CC(N7CCC(c8cc(F)c([C@H]9CCC(=O)NC9=O)c(F)c8)CC7)C6)CC5)cc4OC)ncc3Br)ccc2n1` [Example 13, (R)-3-(4-(1-(1-(1-(4-((5-bromo-4-((5-(dimethylphosphoryl)-2-ethylquinazolin-6-yl)amino)pyrimidin-2-yl)amino)-2-ethyl-5-methoxyphenyl)piperidin-4-yl)azetidin-3-yl)piperidin-4-yl)-2,6-difluorophenyl)piperidine-2,6-dione] the DC50 (EGFR-Del19/T790M/C797S) was 0.7 nM, the “Dmax (%) H1975 # 28 DTC” value (EGFR-Del19/T790M/C797S) was 92% and the DC50 (EGFR-L858R/T790M/C797S) was 1.8 nM. It also gave a Dmax (EGFR-L858R/T790M/C797S) of 94%.

In the case of `CCc1ccc2c(P(C)(C)=O)c(Nc3nc(Nc4cc(CC)c(N5CCC(N6CCN(C7CN(c8cccc9c8n(C)c(=O)n9C8CCC(=O)NC8=O)C7)CC6)CC5)cc4OC)ncc3Br)ccc2n1` (stereo not shown) [Example 21, 3-(4-(3-(4-(1-(4-((5-bromo-4-((5-(dimethylphosphoryl)-2-ethylquinolin-6-yl)amino)pyrimidin-2-yl)amino)-2-ethyl-5-methoxyphenyl)piperidin-4-yl)piperazin-1-yl)azetidin-1-yl)-3-methyl-2-oxo-2,3-dihydro-1H-benzol[d]imidazol-1-yl)piperidine-2,6-dione], the DC50 (EGFR-Del19/T790M/C797S) was 0.6 nM, the “Dmax (%) H1975 # 28 DTC” value (EGFR-Del19/T790M/C797S) was 77% and the DC50 (EGFR-L858R/T790M/C797S) was 1.8 nM. It also gave a Dmax (EGFR-L858R/T790M/C797S) of 78%.
